Data taken from ChEMBL document CHEMBL1177800, “Inhibition of ABCG2-mediated drug efflux by naphthopyrones from marine crinoids” (Bioorg Med Chem Lett, 2010).

biological target: T1, Broad substrate specificity ATP-binding cassette transporter ABCG2 (Homo sapiens, UniProt Q9UNQ0); experiment: Inhibition of ABCG2 expressed in human NCI-H460 cells assessed as inhibition of PhA accumulation relative to fumitremorgin C; format: cell-based; conditions: not given
T1 sequence (Q9UNQ0 whole entry): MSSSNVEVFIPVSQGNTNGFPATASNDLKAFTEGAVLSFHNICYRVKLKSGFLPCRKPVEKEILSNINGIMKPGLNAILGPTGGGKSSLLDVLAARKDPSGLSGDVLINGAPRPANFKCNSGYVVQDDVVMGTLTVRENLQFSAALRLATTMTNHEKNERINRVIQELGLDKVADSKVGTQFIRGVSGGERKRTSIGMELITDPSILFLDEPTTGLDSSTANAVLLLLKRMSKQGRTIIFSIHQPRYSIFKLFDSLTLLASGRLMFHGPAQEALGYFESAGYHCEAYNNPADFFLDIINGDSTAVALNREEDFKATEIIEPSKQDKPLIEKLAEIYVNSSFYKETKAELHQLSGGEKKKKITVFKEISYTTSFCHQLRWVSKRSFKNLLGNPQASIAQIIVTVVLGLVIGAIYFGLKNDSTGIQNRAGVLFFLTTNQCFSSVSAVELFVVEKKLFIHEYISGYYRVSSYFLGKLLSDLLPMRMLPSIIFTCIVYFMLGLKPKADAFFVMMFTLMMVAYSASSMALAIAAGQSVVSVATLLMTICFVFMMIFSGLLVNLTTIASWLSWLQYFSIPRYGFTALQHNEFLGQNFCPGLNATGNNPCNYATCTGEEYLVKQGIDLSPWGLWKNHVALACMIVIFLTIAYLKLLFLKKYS

Row | Structure (SMILES) | inhibition (INH)
1 | CCCc1cc(=O)c2c(O)c3c(OC)cc(O)cc3cc2o1 | Not Active
2 | CCCc1cc(=O)c2c(OC)cc3cc(O)cc(OC)c3c2o1 | 46.3%
3 | CCCc1cc(=O)c2c(O)c3c(O)cc(OC)cc3c(OC)c2o1 | Not Active
4 | CCCc1cc(=O)c2c(O)cc3cc(O)cc(OC)c3c2o1 [COMAPARVIN] | 54.3%
5 | COc1cc(O)cc2cc3oc(C)cc(=O)c3c(O)c12 | Not Active

Now from value to compound:

Row | inhibition (INH) | Structure (SMILES)
6 | 27.5% | CCCc1cc(=O)c2c(O)c(OC)c3cc(O)cc(OC)c3c2o1
7 | Not Active | COc1cc(O)c2c(O)c3c(=O)cc(C)oc3c(OC)c2c1
8 | Not Active | COc1c(OC)c2c(=O)cc(C)oc2c2c(OC)cc(O)cc12
9 | 31% | COc1cc(O)cc2cc(O)c3c(=O)cc(C)oc3c12
10 | 59.3% | COc1c(O)c2c(=O)cc(C)oc2c2c(OC)cc(O)cc12
11 | 44% | CCCc1cc(=O)c2c(OC)c(OC)c3cc(O)cc(OC)c3c2o1

biological target: T1, Broad substrate specificity ATP-binding cassette transporter ABCG2; experiment: Inhibition of ABCG2-mediated drug efflux expressed in human NCI-H460 cells; format: cell-based; conditions: nci-h460

Row | Structure (SMILES) | IC50
12 | CCCc1cc(=O)c2c(O)c3c(OC)cc(O)cc3cc2o1 | Not Active
13 | CCCc1cc(=O)c2c(O)c3c(O)cc(OC)cc3c(OC)c2o1 | Not Active
14 | COc1cc(O)cc2cc3oc(C)cc(=O)c3c(O)c12 | Not Active

The remaining lines, values ahead:

Row | IC50 | Structure (SMILES)
15 | Not Active | COc1cc(O)c2c(O)c3c(=O)cc(C)oc3c(OC)c2c1
16 | Not Active | COc1c(OC)c2c(=O)cc(C)oc2c2c(OC)cc(O)cc12

same assay, conditions: read-out: IC50

Row | Structure (SMILES) | IC50 [µM]
17 | CCCc1cc(=O)c2c(OC)cc3cc(O)cc(OC)c3c2o1 | 5.9
18 | CCCc1cc(=O)c2c(O)cc3cc(O)cc(OC)c3c2o1 [COMAPARVIN] | 9

Results, then the compound that gave them:

Row | IC50 [µM] | Structure (SMILES)
19 | > 20 | CCCc1cc(=O)c2c(O)c(OC)c3cc(O)cc(OC)c3c2o1
20 | 12.8 | COc1cc(O)cc2cc(O)c3c(=O)cc(C)oc3c12
21 | 11.9 | COc1c(O)c2c(=O)cc(C)oc2c2c(OC)cc(O)cc12
22 | 16.6 | CCCc1cc(=O)c2c(OC)c(OC)c3cc(O)cc(OC)c3c2o1
